Experimental findings from PMC7034945 (RSC Advances, 2019) are described below.

The experiment relates to HIV-1 NL4-3 virus. The experiment is described as follows: Anti-HIV-1 activity, multicycle assay with HIV-1 NL4-3 in TZM-bl cells. It counts as cell-based. The settings on record: for EC50: Human immunodeficiency virus 1, NL43, TZM-bl; for SI (selectivity index, ratio of CC50/EC50) / anti-HIV-1 activity (in words): TZM-bl cells; for anti-HIV-1 activity (in words): at the test concentration.

In general, EC50 refers to the concentration that produces a half-maximal response. Low readings indicate a more potent agent, high ones a less potent agent. As to `COc1ccc(N(C)C(=O)[C@H](Cc2cc(F)cc(F)c2)NC(=O)c2cn(CS(=O)(=O)c3ccccc3)nn2)cc1` [I-8t, (S)-N-(3-(3,5-Difluorophenyl)-1-((4-methoxyphenyl)(methyl)amino)-1-oxopropan-2-yl)-1-((phenylsulfonyl)methyl)-1H-1,2,3-triazole-4-carboxamide], the EC50 worked out at 4.21 ± 0.9 µM. In addition, the “SI (selectivity index, ratio of CC50/EC50)” value (Table 1) was more than 4.17.

As for `COc1ccc(N(C)C(=O)[C@H](Cc2cc(F)cc(F)c2)NC(=O)c2cccc(-c3cn(Cc4ccccc4[N+](=O)[O-])nn3)c2)cc1` [II-10a, (S)-N-(3-(3,5-Difluorophenyl)-1-((4-methoxyphenyl)(methyl)amino)-1-oxopropan-2-yl)-3-(1-(2-nitrobenzyl)-1H-1,2,3-triazol-4-yl)benzamide], the EC50 is more than 35.5 µM.

As to `COc1ccc(N(C)C(=O)[C@H](Cc2cc(F)cc(F)c2)NC(=O)c2cccc(-c3cn(Cc4cccc([N+](=O)[O-])c4)nn3)c2)cc1` [II-10b, (S)-N-(3-(3,5-Difluorophenyl)-1-((4-methoxyphenyl)(methyl)amino)-1-oxopropan-2-yl)-3-(1-(3-nitrobenzyl)-1H-1,2,3-triazol-4-yl)benzamide], the EC50 is more than 35.5 µM.

With `COc1ccc(N(C)C(=O)[C@H](Cc2cc(F)cc(F)c2)NC(=O)c2cccc(-c3cn(Cc4ccc(C(N)=O)cc4)nn3)c2)cc1` [II-10d, (S)-3-(1-(4-Carbamoylbenzyl)-1H-1,2,3-triazol-4-yl)-N-(3-(3,5-difluorophenyl)-1-((4-methoxyphenyl)(methyl)amino)-1-oxopropan-2-yl)benzamide], the EC50 turned out to be 23.4 ± 6.88 µM and the “anti-HIV-1 activity (in words)” value is reported as “exhibited anti-HIV-1 activity at the test concentration”. Moreover, the “SI (selectivity index, ratio of CC50/EC50)” value (Table 2) is more than 1.37.

As for `COc1ccc(N(C)C(=O)[C@H](Cc2cc(F)cc(F)c2)NC(=O)c2cccc(-c3cn(CC(=O)Nc4ccccc4)nn3)c2)cc1` [II-10e, (S)-N-(3-(3,5-Difluorophenyl)-1-((4-methoxyphenyl)(methyl)amino)-1-oxopropan-2-yl)-3-(1-(2-oxo-2-(phenylamino)ethyl)-1H-1,2,3-triazol-4-yl)benzamide], a half-maximal response (EC50) required 8.16 ± 2.56 µM and the “anti-HIV-1 activity (in words)” value is “exhibited anti-HIV-1 activity at the test concentration”. The “SI (selectivity index, ratio of CC50/EC50)” value (Table 2) was more than 3.92.

With `COc1ccc(N(C)C(=O)[C@H](Cc2cc(F)cc(F)c2)NC(=O)c2cccc(-c3cn(Cc4ccc(S(N)(=O)=O)cc4)nn3)c2)cc1` [II-10f, (S)-N-(3-(3,5-Difluorophenyl)-1-((4-methoxyphenyl)(methyl)amino)-1-oxopropan-2-yl)-3-(1-(4-sulfamoylbenzyl)-1H-1,2,3-triazol-4-yl)benzamide], the EC50 is more than 30.3 µM.

Consider `COc1ccc(N(C)C(=O)[C@H](Cc2cc(F)cc(F)c2)NC(=O)c2cccc(-c3cn(CCCc4ccccc4)nn3)c2)cc1` [II-10g, (S)-N-(3-(3,5-Difluorophenyl)-1-((4-methoxyphenyl)(methyl)amino)-1-oxopropan-2-yl)-3-(1-(3-phenylpropyl)-1H-1,2,3-triazol-4-yl)benzamide], for which the half-maximal effective concentration (EC50) was more than 32.8 µM.

Regarding `COc1ccc(N(C)C(=O)[C@H](Cc2cc(F)cc(F)c2)NC(=O)c2cccc(-c3cn(CCc4ccsc4)nn3)c2)cc1` [II-10h, (S)-N-(3-(3,5-Difluorophenyl)-1-((4-methoxyphenyl)(methyl)amino)-1-oxopropan-2-yl)-3-(1-(2-(thiophen-3-yl)ethyl)-1H-1,2,3-triazol-4-yl)benzamide], a half-maximal effect (EC50) was put at 7.48 ± 2.83 µM and the “anti-HIV-1 activity (in words)” value is “exhibited anti-HIV-1 activity at the test concentration”. Also, under “Table 2”, the “SI (selectivity index, ratio of CC50/EC50)” value is given as more than 4.44.

Turning to `COc1ccc(N(C)C(=O)[C@H](Cc2cc(F)cc(F)c2)NC(=O)c2cccc(-c3cn(Cc4ccc5ccccc5c4)nn3)c2)cc1` [II-10j, (S)-N-(3-(3,5-Difluorophenyl)-1-((4-methoxyphenyl)(methyl)amino)-1-oxopropan-2-yl)-3-(1-(naphthalen-2-ylmethyl)-1H-1,2,3-triazol-4-yl)benzamide], the EC50 was more than 31.7 µM.
